Laboratory results: publication PMC7073184, “The Major Cat Allergen Fel d 1 Binds Steroid and Fatty Acid Semiochemicals: A Combined In Silico and In Vitro Study” (International Journal of Molecular Sciences, 2020)
Where two headings read alike, the source gives them in different places.

Tests used:
rFel d 1 [1] = target: T1, rFel d 1 (Felis catus, UniProt P30438+P30440); test: 1-NPN binding to rFel d 1 (fluorescence titration); design: species or system cat
Method: To a 1-µM solution of the protein in 50 mM Tris-HCl, pH 7.4, aliquots of 1 mM solution of 1-NPN in methanol were added to final concentrations of 1–20 µM. (a) The representative emission curves experimentally obtained. […] (b) The saturation binding curve obtained from the average of three experiments.
N-Phenyl-1-naphthylamine (1-NPN) was used as a non-polar fluorescent probe in competitive binding experiments with the ligands (Sigma, France) to investigate binding efficiency of semiochemical analogs with pure rFel d 1 (INDOOR Biotechnologies, UK) [30]. The fluorescence experiments were performed on an FP-750 spectrofluorometer (JASCO, Japan) instrument at 25 °C in a right-angle configuration with a 1 cm light path fluorimeter quartz cuvette and 5-nm slits for both excitation and emission. The probe 1-NPN was excited at 337 nm and emission spectra were recorded between 380 and 450 nm, at 25 °C. The protein was dissolved in 50 mM Tris-HCl, pH 7.4, and ligands were added as 1 mM methanol solutions.
The binding of 1-NPN to rFel d 1 was tested at two protein concentrations (1 µM and 2 µM) by titrating the protein solution with aliquots of a 1-mM solution of 1-NPN in methanol to final concentrations of 1–20 µM. The bound ligand was evaluated from the values of fluorescence intensity assuming that the protein was 100% active, with a stoichiometry of 1:1 protein: ligand. […]

[2] = ref PubChem and ChemSpider; cited from earlier work
rFel d 1 [3] = target: T1, rFel d 1; test: 1-NPN displacement screening (fluorescence); assay type: binding, cat; details: 1 µM rFel d 1, 1 μM 1-NPN, 2 µM competitive ligand
Method: (§1) N-Phenyl-1-naphthylamine (1-NPN) was used as a non-polar fluorescent probe in competitive binding experiments with the ligands (Sigma, France) to investigate binding efficiency of semiochemical analogs with pure rFel d 1 (INDOOR Biotechnologies, UK). The fluorescence experiments were performed on an FP-750 spectrofluorometer (JASCO, Japan) instrument at 25 °C in a right-angle configuration with a 1 cm light path fluorimeter quartz cuvette and 5-nm slits for both excitation and emission. The probe 1-NPN was excited at 337 nm and emission spectra were recorded between 380 and 450 nm, at 25 °C. The protein was dissolved in 50 mM Tris-HCl, pH 7.4, and ligands were added as 1 mM methanol solutions.
(§2) Semiochemicals were first screened for their capabilities to bind rFel d 1 using 1 µM of rFel d 1, 1 μM of 1-NPN, and 2 µM of a competitive ligand. […] IC50 was graphically determined from the dose–response curve of each competitor ligand.

rFel d 1 [4] = target: T1, rFel d 1; test: Competitive binding assay with the fluorescent probe 1-NPN; design: species or system cat; details: for IC50: 1 µM rFel d 1, 2 μM 1-NPN, 25 °C, 50 mM Tris-HCl pH 7.4, competitor 0–16 μM; for Kd: calculated from IC50 with K1-NPN […]
Method: Figure 2 Competitive binding of selected fatty acids (a) and steroids (b) to rFel d 1. […] Fluorescence of probe-protein complexes in the absence of a competitor was normalized to 100%.
as §1, §2

T1 sequence (P30440 18-109): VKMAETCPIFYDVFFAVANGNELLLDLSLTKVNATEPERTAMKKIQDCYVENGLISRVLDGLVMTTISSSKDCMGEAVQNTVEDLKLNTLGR
T1 sequence (P30438 23-92): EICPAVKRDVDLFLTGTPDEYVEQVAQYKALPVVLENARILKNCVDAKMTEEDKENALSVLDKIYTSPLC

Row | Compound | Topological Polar Surface Area [2] [Å²] | 1-NPN Displacement Screening (rFel d 1 [3]) | further results
1 | c1ccc(Nc2cccc3ccccc23)cc1 [1-NPN, N-phenyl-1-naphthylamine, reference compound] | 12 |  | Kd (rFel d 1 [1]; 1 µM rFel d 1, 50 mM Tris-HCl pH 7.4, 1-NPN 1–20 µM, average of three experiments, read-out: dissociation constant of 1-NPN (GraphPad)): 5.8 µM; Kd (rFel d 1 [1]; 1 µM rFel d 1, Scatchard plot, read-out: dissociation constant K1-NPN (Scatchard analysis)): 4.8 µM
2 | C[C@]12CCC(=O)C=C1CC[C@@H]1[C@@H]2CC[C@]2(C)C(=O)CC[C@@H]12 [Androstenedione] | 34.1 | Yes | 
3 | C[C@]12CC[C@@H](O)C[C@@H]1CC[C@@H]1[C@@H]2CC[C@]2(C)C=CC[C@@H]12 [Androstenol] | 20.2 | No | 
4 | CC12C=CCC1C1CCC3CC(=O)CCC3(C)C1CC2 (centres unmarked) [Androstenone] | 17.1 | Yes | IC50 (rFel d 1 [4]; read-out: IC50): 3.1 µM; Kd (rFel d 1 [4]; read-out: Kd): 2.4 µM
5 | CCCCCCCCCC(=O)O [Capric acid] |  | No | 
6 | C[C@]12C[C@H](O)[C@H]3[C@@H](CCC4=CC(=O)CC[C@@]43C)[C@@H]1CC[C@@H]2C(=O)CO [Corticosterone] | 74.6 | No | 
7 | C[C@]12CC[C@H](O)CC1=CC[C@@H]1[C@@H]2CC[C@]2(C)C(=O)CC[C@@H]12 [Dehydroepiandrosterone (DHEA), Dehydroepiandrosterone] | 37.3 | Yes | 
8 | C[C@]12CCC(=O)C[C@@H]1CC[C@@H]1[C@@H]2CC[C@]2(C)[C@@H](O)CC[C@@H]12 [Dihydrotestosterone] | 37.3 | No | 
9 | CCCCCCCCCCCC=O [Dodecanal] | 17.1 | No | 
10 | CCCCCCCCCCCCO [Dodecanol] | 20.2 | No | 
11 | C[C@]12CC[C@@H]3c4ccc(O)cc4CC[C@H]3[C@@H]1CC[C@@H]2O [Estradiol] | 40.5 | Yes | 
12 | C[C@]12CC[C@@H]3c4ccc(O)cc4CC[C@H]3[C@@H]1CCC2=O [Estrone] |  | Yes | 
13 | CCCCCCCCCCCC(=O)OCC [Ethyl Laurate] | 26.3 | No | 
14 | CCCCCCCCCCCCCCCC(N)=O [Hexadecanamide] | 43.1 |  | 
15 | CC(=O)[C@@]1(O)CC[C@H]2[C@@H]3CCC4=CC(=O)CC[C@]4(C)[C@H]3CC[C@@]21C [Hydroxyprogesterone] | 54.4 | Yes | 
16 | CC(C)C(=O)O [Isobutyric acid] | 37.3 |  | 
17 | CCCCCCCCCCCC(=O)O [Lauric acid] | 37.3 | Yes | IC50 (rFel d 1 [4]): 3.3 µM; Kd (rFel d 1 [4]): 2.6 µM
18 | CCCCC/C=C\C/C=C\CCCCCCCC(=O)O [Linoleic acid] | 37.3 | Yes | IC50 (rFel d 1 [4]): 10.1 µM; Kd (rFel d 1 [4]): 7.8 µM
19 | CCCCCCCCCCCCCCCC(=O)OC [Methyl Palmitate] | 26.3 | No | 
20 | CCCCCCCCCCCCCC(=O)O [Myristic acid] | 37.3 | Yes | IC50 (rFel d 1 [4]): 14.4 µM; Kd (rFel d 1 [4]): 11.1 µM
21 | CCCCCCCCC(N)=O [Nonanamide] | 43.1 |  | 
22 | CCCCCCCCCCCCCCCCCC(N)=O [Octadecanamide] | 43.1 |  | 
23 | CCCCCCCC/C=C\CCCCCCCC(=O)O [Oleic acid] | 37.3 | Yes | IC50 (rFel d 1 [4]): 10 µM; Kd (rFel d 1 [4]): 7.7 µM
24 | CCCCCCCCCCCCCCCC(=O)O [Palmitic acid] | 37.3 | Yes | affinity to rFel d 1 in words (rFel d 1 [4]; competitive binding with 1-NPN, among the fatty acids): weakest ligand
25 | CC(=O)[C@H]1CC[C@H]2[C@@H]3CC=C4C[C@@H](O)CC[C@]4(C)[C@H]3CC[C@]12C [Pregnenolone] | 37.3 | Yes | IC50 (rFel d 1 [4]; read-out: IC50): 13.1 µM; Kd (rFel d 1 [4]; read-out: Kd): 10.1 µM
26 | CC(=O)[C@H]1CC[C@H]2[C@@H]3CCC4=CC(=O)CC[C@]4(C)[C@H]3CC[C@]12C [Progesterone] | 34.1 | Yes | IC50 (rFel d 1 [4]): 13.6 µM; Kd (rFel d 1 [4]): 10.5 µM
27 | C[C@]12CC[C@H]3[C@@H](CCC4=CC(=O)CC[C@@]43C)[C@@H]1CC[C@@H]2O [Testosterone] | 37.3 | Yes | 
28 | CCCCCCCCCCCCCCO [Tetradecanol] | 20.2 | No | 
29 | Deoxycorticosterone | 54.4 | No | 
